Laboratory results reported in ChEMBL document CHEMBL4507277.

What was measured:
[1] = target: ALK tyrosine kinase receptor (Homo sapiens) (UniProt Q9UM73); settings: Compound concentration 1000.0 nM
[2] = target: Mitogen-activated protein kinase kinase kinase 5 (Homo sapiens) (UniProt Q99683); settings: Compound concentration 1000.0 nM
[3] = target: BMP-2-inducible protein kinase (Homo sapiens) (UniProt Q9NSY1); settings: Compound concentration 1000.0 nM
[4] = target: Bone morphogenetic protein receptor type-1A (Homo sapiens) (UniProt P36894); settings: Compound concentration 1000.0 nM
[5] = target: Calcium/calmodulin-dependent protein kinase type II subunit alpha (Homo sapiens) (UniProt Q9UQM7); settings: Compound concentration 1000.0 nM
[6] = target: Cyclin-dependent kinase 13 (Homo sapiens) (UniProt Q14004); settings: Compound concentration 1000.0 nM
[7] = target: Casein kinase I isoform gamma-3 (Homo sapiens) (UniProt Q9Y6M4); settings: Compound concentration 1000.0 nM
[8] = target: Megakaryocyte-associated tyrosine-protein kinase (Homo sapiens) (UniProt P42679); settings: Compound concentration 1000.0 nM
[9] = target: Serine/threonine-protein kinase DCLK2 (Homo sapiens) (UniProt Q8N568); settings: Compound concentration 1000.0 nM
[10] = target: Discoidin domain-containing receptor 2 (Homo sapiens) (UniProt Q16832); settings: Compound concentration 1000.0 nM
[11] = target: Serine/threonine-protein kinase 17B (Homo sapiens) (UniProt O94768); settings: Compound concentration 1000.0 nM
[12] = target: Dual specificity tyrosine-phosphorylation-regulated kinase 2 (Homo sapiens) (UniProt Q92630); settings: Compound concentration 1000.0 nM
[13] = system: Epidermal growth factor receptor (Homo sapiens), P00533 [UNDEFINED MUTATION]; settings: Compound concentration 1000.0 nM
[14] = system: Receptor-type tyrosine-protein kinase FLT3 (Homo sapiens), P36888 [D835V]; settings: Compound concentration 1000.0 nM
[15] = target: Tyrosine-protein kinase HCK (Homo sapiens) (UniProt P08631); settings: Compound concentration 1000.0 nM
[16] = system: Mast/stem cell growth factor receptor Kit (Homo sapiens), P10721 [L576P]; settings: Compound concentration 1000.0 nM
[17] = target: LIM domain kinase 1 (Homo sapiens) (UniProt P53667); settings: Compound concentration 1000.0 nM
[18] = target: Leucine-rich repeat serine/threonine-protein kinase 2 (Homo sapiens) (UniProt Q5S007); settings: Compound concentration 1000.0 nM
[19] = system: Leucine-rich repeat serine/threonine-protein kinase 2 (Homo sapiens), Q5S007 [G2019S]; settings: Compound concentration 1000.0 nM
[20] = target: Mitogen-activated protein kinase kinase kinase 3 (Homo sapiens) (UniProt Q99759); settings: Compound concentration 1000.0 nM
[21] = target: Dual specificity mitogen-activated protein kinase kinase 3 (Homo sapiens) (UniProt P46734); settings: Compound concentration 1000.0 nM
[22] = target: Maternal embryonic leucine zipper kinase (Homo sapiens) (UniProt Q14680); settings: Compound concentration 1000.0 nM
[23] = system: Hepatocyte growth factor receptor (Homo sapiens), P08581 [Y1235D]; settings: Compound concentration 1000.0 nM
[24] = target: Serine/threonine-protein kinase MRCK alpha (Homo sapiens) (UniProt Q5VT25); settings: Compound concentration 1000.0 nM
[25] = target: Myosin light chain kinase family member 4 (Homo sapiens) (UniProt Q86YV6); settings: Compound concentration 1000.0 nM
[26] = target: Myosin-IIIa (Homo sapiens) (UniProt Q8NEV4); settings: Compound concentration 1000.0 nM
[27] = system: Phosphatidylinositol 4,5-bisphosphate 3-kinase catalytic subunit alpha isoform (Homo sapiens), P42336 [H1047L]; settings: Compound concentration 1000.0 nM
[28] = target: Phosphatidylinositol 4-phosphate 5-kinase type-1 alpha (Homo sapiens) (UniProt Q99755); settings: Compound concentration 1000.0 nM
[29] = target: Protein kinase C eta type (Homo sapiens) (UniProt P24723); settings: Compound concentration 1000.0 nM
[30] = system: Proto-oncogene tyrosine-protein kinase receptor Ret (Homo sapiens), P07949 [V804M]; settings: Compound concentration 1000.0 nM
[31] = target: Serine/threonine-protein kinase RIO1 (Homo sapiens) (UniProt Q9BRS2); settings: Compound concentration 1000.0 nM
[32] = target: Rho-associated protein kinase 2 (Homo sapiens) (UniProt O75116); settings: Compound concentration 1000.0 nM
[33] = target: Serine/threonine-protein kinase Sgk1 (Homo sapiens) (UniProt O00141); settings: Compound concentration 1000.0 nM
[34] = target: Serine/threonine-protein kinase Sgk3 (Homo sapiens) (UniProt Q96BR1); settings: Compound concentration 1000.0 nM
[35] = target: STE20-like serine/threonine-protein kinase (Homo sapiens) (UniProt Q9H2G2); settings: Compound concentration 1000.0 nM
[36] = target: SNF-related serine/threonine-protein kinase (Homo sapiens) (UniProt Q9NRH2); settings: Compound concentration 1000.0 nM
[37] = target: Serine/threonine-protein kinase 36 (Homo sapiens) (UniProt Q9NRP7); settings: Compound concentration 1000.0 nM
[38] = target: STE20/SPS1-related proline-alanine-rich protein kinase (Homo sapiens) (UniProt Q9UEW8); settings: Compound concentration 1000.0 nM
[39] = target: Tyrosine-protein kinase Tec (Homo sapiens) (UniProt P42680); settings: Compound concentration 1000.0 nM
[40] = target: Dual specificity testis-specific protein kinase 1 (Homo sapiens) (UniProt Q15569); settings: Compound concentration 1000.0 nM
[41] = target: Tyrosine-protein kinase receptor Tie-1 (Homo sapiens) (UniProt P35590); settings: Compound concentration 1000.0 nM
[42] = target: Serine/threonine-protein kinase tousled-like 2 (Homo sapiens) (UniProt Q86UE8); settings: Compound concentration 1000.0 nM
[43] = target: Tyrosine-protein kinase receptor TYRO3 (Homo sapiens) (UniProt Q06418); settings: Compound concentration 1000.0 nM
[44] = target: Serine/threonine-protein kinase 32C (Homo sapiens) (UniProt Q86UX6); settings: Compound concentration 1000.0 nM
[45] = target: Sodium-dependent dopamine transporter (Homo sapiens) (UniProt Q01959); settings: Compound concentration 10.0 uM
Sodium-dependent dopamine transporter (Homo sapiens), sequence (Q01959 whole entry): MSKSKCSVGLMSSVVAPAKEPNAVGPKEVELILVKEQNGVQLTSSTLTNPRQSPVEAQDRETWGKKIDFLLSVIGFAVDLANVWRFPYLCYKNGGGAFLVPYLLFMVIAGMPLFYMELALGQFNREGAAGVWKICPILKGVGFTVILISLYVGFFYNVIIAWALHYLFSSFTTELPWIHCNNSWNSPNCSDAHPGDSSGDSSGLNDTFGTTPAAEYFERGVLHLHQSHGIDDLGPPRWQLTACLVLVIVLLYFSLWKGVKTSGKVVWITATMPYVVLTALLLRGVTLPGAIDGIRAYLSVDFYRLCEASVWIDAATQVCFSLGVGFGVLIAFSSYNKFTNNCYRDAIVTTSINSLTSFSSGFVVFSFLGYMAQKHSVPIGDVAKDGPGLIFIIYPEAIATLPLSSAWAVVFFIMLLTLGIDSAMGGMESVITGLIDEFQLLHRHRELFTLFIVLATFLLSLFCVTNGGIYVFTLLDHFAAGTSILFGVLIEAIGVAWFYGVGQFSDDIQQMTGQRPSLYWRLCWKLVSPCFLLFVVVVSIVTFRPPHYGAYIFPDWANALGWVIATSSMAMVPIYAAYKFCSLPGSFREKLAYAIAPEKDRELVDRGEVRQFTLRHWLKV

Leucine-rich repeat serine/threonine-protein kinase 2 (Homo sapiens), Q5S007 [G2019S], sequence (Q5S007 whole entry G2019S): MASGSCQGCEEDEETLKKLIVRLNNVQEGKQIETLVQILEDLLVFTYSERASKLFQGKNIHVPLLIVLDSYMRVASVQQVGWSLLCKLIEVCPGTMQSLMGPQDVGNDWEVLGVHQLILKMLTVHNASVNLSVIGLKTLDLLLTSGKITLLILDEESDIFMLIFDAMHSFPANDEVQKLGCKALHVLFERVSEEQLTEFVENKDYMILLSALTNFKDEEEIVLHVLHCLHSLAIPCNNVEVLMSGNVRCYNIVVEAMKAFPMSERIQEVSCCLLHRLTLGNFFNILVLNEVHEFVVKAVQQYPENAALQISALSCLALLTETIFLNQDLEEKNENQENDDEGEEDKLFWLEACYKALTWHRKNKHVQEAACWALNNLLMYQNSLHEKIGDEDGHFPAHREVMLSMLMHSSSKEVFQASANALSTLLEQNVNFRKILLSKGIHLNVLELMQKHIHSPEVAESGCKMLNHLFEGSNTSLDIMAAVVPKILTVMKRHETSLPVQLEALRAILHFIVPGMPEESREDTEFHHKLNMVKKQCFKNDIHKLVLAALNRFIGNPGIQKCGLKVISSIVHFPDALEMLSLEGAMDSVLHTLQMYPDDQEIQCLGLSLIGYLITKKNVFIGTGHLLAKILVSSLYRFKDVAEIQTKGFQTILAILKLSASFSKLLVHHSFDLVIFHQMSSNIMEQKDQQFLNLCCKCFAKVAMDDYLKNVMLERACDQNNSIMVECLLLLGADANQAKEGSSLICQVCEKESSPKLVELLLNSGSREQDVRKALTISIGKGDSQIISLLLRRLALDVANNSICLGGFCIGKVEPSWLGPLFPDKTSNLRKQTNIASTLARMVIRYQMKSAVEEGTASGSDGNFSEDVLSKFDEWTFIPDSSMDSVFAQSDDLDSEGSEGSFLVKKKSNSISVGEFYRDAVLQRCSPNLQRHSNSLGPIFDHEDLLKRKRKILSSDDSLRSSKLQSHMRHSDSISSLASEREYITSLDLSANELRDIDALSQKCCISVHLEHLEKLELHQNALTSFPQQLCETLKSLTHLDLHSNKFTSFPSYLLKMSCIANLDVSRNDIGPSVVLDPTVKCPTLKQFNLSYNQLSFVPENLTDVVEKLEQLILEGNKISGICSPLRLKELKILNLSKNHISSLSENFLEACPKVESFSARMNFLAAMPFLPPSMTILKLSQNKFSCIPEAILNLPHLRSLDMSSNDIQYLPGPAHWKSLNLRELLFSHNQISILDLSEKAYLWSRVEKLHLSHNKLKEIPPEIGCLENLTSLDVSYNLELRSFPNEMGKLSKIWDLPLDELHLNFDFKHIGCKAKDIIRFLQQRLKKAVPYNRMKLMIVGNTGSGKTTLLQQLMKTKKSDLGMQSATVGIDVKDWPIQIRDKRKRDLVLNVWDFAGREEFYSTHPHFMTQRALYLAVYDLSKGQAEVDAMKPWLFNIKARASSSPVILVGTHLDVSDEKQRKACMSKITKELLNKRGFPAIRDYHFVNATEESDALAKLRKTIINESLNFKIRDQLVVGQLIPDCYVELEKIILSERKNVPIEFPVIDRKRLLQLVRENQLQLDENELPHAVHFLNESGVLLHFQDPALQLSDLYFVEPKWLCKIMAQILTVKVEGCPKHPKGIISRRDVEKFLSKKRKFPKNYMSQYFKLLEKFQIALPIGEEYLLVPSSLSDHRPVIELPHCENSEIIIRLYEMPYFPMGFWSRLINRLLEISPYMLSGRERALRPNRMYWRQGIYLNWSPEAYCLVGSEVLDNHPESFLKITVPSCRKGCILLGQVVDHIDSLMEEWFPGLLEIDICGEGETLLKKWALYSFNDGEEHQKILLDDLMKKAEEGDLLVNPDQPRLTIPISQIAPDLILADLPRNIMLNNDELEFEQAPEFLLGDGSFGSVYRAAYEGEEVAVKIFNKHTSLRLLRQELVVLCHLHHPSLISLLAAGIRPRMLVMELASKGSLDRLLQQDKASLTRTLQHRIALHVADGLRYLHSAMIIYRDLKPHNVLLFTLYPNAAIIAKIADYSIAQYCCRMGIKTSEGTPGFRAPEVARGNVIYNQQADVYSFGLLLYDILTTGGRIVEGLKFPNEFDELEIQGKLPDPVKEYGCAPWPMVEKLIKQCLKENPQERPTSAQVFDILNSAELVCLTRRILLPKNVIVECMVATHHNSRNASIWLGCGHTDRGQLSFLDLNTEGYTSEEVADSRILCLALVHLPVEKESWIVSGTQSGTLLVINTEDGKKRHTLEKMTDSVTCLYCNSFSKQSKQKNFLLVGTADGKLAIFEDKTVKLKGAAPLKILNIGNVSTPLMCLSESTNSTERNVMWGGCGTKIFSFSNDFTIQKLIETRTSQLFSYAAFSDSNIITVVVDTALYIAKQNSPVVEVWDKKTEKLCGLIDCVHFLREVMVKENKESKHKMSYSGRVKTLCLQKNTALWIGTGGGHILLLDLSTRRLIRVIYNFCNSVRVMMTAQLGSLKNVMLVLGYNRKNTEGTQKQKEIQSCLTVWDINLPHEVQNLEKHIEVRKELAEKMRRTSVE
Proto-oncogene tyrosine-protein kinase receptor Ret (Homo sapiens), P07949 [V804M], sequence (P07949 whole entry V804M): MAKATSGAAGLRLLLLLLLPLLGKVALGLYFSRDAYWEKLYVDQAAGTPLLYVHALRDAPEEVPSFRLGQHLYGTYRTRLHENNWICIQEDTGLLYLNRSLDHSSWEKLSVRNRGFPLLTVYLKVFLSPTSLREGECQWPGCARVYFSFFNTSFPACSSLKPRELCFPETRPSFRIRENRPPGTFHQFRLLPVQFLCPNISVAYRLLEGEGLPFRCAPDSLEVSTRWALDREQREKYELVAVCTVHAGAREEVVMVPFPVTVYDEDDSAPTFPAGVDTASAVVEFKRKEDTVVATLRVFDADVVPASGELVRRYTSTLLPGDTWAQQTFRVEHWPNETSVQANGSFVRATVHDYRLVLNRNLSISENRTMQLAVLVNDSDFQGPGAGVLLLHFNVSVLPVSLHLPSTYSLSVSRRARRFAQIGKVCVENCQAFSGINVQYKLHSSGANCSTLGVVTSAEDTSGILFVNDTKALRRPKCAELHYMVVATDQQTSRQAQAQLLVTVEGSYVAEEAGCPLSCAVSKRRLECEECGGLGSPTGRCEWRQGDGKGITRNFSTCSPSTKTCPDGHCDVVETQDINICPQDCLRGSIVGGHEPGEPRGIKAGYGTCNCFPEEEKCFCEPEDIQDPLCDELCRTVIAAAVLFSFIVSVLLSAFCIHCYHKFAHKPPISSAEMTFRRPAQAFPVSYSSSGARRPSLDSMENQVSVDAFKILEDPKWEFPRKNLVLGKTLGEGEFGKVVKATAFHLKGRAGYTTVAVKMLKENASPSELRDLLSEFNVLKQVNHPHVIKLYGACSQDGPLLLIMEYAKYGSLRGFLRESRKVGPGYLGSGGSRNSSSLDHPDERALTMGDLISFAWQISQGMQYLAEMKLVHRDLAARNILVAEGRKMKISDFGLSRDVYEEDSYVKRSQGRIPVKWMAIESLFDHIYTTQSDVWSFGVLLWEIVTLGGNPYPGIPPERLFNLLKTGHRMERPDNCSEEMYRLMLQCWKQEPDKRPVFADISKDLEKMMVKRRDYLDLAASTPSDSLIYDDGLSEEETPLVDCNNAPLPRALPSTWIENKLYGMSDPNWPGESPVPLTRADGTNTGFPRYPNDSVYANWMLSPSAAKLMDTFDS
Phosphatidylinositol 4-phosphate 5-kinase type-1 alpha (Homo sapiens), sequence (Q99755 whole entry): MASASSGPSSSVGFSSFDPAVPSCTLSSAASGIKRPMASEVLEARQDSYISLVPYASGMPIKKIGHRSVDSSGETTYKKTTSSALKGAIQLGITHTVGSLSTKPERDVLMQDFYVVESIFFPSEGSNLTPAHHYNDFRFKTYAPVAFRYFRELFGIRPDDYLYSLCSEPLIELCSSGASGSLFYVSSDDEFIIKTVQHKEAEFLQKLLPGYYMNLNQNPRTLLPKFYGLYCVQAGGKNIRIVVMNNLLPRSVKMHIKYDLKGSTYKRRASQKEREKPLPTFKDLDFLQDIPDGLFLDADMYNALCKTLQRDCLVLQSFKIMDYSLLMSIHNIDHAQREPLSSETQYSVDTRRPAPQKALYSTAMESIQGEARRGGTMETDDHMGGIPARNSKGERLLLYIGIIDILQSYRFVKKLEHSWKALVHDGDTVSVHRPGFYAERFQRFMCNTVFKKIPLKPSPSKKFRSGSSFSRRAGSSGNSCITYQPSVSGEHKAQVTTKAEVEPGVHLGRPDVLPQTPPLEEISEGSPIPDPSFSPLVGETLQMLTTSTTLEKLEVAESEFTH
Leucine-rich repeat serine/threonine-protein kinase 2 (Homo sapiens), sequence (Q5S007 whole entry): as the sequence (Q5S007 whole entry G2019S) above, with S2019G counted along it

`CCS(=O)(=O)c1cc2cc(C[C@](O)(CC(C)(C)c3ccc(F)cc3C(N)=O)C(F)(F)F)[nH]c2cn1` was tested, and the residual activity [1] was 100%, the residual activity [2] was 100% and the residual activity [3] was 83%. For the same compound, the residual activity [4] was 100%, the residual activity [5] was 94% and the residual activity [6] was 100%. For the same compound, the residual activity [7] was 100%, the residual activity [8] was 100% and the residual activity [9] was 100%. For the same compound, the residual activity [10] was 88%, the residual activity [11] was 74% and the residual activity [12] was 92%. The residual activity [13] was 100%, the residual activity [14] was 95% and the residual activity [15] was 100%. It also gave a residual activity [16] of 83%, a residual activity [17] of 100% and a residual activity [18] of 100%. For the same compound, the residual activity [19] was 100%, the residual activity [20] was 92% and the residual activity [21] was 100%. For the same compound, the residual activity [22] was 100%, the residual activity [23] was 100% and the residual activity [24] was 89%. It also gave a residual activity [25] of 100%, a residual activity [26] of 94% and a residual activity [27] of 96%. For the same compound, the residual activity [28] was 100%, the residual activity [29] was 94% and the residual activity [30] was 100%. For the same compound, the residual activity [31] was 80%, the residual activity [32] was 100% and the residual activity [33] was 100%. For the same compound, the residual activity [34] was 89%, the residual activity [35] was 100% and the residual activity [36] was 100%. The residual activity [37] was 100%, the residual activity [38] was 100% and the residual activity [39] was 90%. For the same compound, the residual activity [40] was 100%, the residual activity [41] was 100% and the residual activity [42] was 100%. The residual activity [43] was 81%, the residual activity [44] was 100% and the inhibition [45] was -8.67%.

Compound `CCS(=O)(=O)c1cc2cc(C[C@@](O)(CC(C)(C)c3ccc(F)cc3C(N)=O)C(F)(F)F)[nH]c2cn1` has a residual activity [1] of 100%, a residual activity [2] of 100% and a residual activity [3] of 69%. The residual activity [4] was 100%, the residual activity [5] was 100% and the residual activity [6] was 91%. For the same compound, the residual activity [7] was 100%, the residual activity [8] was 100% and the residual activity [9] was 100%. It also gave a residual activity [10] of 100%, a residual activity [11] of 76% and a residual activity [12] of 83%. For the same compound, the residual activity [13] was 100%, the residual activity [14] was 79% and the residual activity [15] was 100%. It also gave a residual activity [16] of 100%, a residual activity [17] of 100% and a residual activity [18] of 42%. It also gave a residual activity [19] of 100%, a residual activity [20] of 90% and a residual activity [21] of 67%. The residual activity [22] was 100%, the residual activity [23] was 100% and the residual activity [24] was 100%. It also gave a residual activity [25] of 100%, a residual activity [26] of 80% and a residual activity [27] of 97%. It also gave a residual activity [28] of 100%, a residual activity [29] of 100% and a residual activity [30] of 74%. The residual activity [31] was 50%, the residual activity [32] was 76% and the residual activity [33] was 79%. It also gave a residual activity [34] of 79%, a residual activity [35] of 88% and a residual activity [36] of 98%. The residual activity [37] was 98%, the residual activity [38] was 84% and the residual activity [39] was 100%. It also gave a residual activity [40] of 77%, a residual activity [41] of 66% and a residual activity [42] of 97%. The residual activity [43] was 92%, the residual activity [44] was 90% and the inhibition [45] was 2.58%.
